# Reference: ChEMBL document CHEMBL5154867, “Baylis-Hillman Adducts as a Versatile Module for Constructing Fluorogenic Release System” (J Med Chem, 2022)
# The source made the active and inactive calls. The rule behind the calls is not given here.
# What was measured:
# [1] = Prodrug activation in PBS at pH 7.4 assessed as retention time of GSH mono-adduct formation at 10 uM in presence of 1 mM GSH by LC-MS analysis; conditions: buffer, pH 7.4, 10 µM
# [2] = Prodrug activation in PBS at pH 7.4 assessed as retention time of prodrug at 10 uM in presence of 1 mM GSH by LC-MS analysis; conditions: buffer, pH 7.4, 10 µM
# [3] = Stability of compound in mouse plasma assessed as prodrug remaining at 100 uM measured upto 12 hrs by HPLC analysis; format: ADME, cell-free
# [4] = Prodrug activation in human HepG2 cells assessed as retention time of prodrug by LC-MS analysis; format: cell-based
# [5] = Prodrug activation in PBS at pH 7.4 assessed as CPT release at 10 uM measured within 30 mins by fluorescence microscopy; conditions: buffer, pH 7.4, 0.5 h
# [6] = Prodrug activation in human HepG2 cells assessed as CPT release by measuring blue fluorescence at 10 uM incubated upto 30 mins by inverted fluorescence microscopy; format: cell-based; conditions: hepg2, 0.5 h
# [7] = Prodrug activation in PBS at pH 7.4 assessed as GSH bis-adduct formation at 10 uM in presence of 1 mM GSH measured 10 mins by LC-MS analysis; conditions: buffer, pH 7.4, 10 min
# [8] = Prodrug activation in human HepG2 cells assessed as retention time of CPT by LC-MS analysis; format: cell-based
# [9] = Prodrug activation in PBS at pH 7.4 assessed as CPT release at 10 uM in presence of 1 mM GSH measured after 5 mins by LC-MS analysis; conditions: buffer, pH 7.4, 5 min
# [10] = Prodrug activation in PBS at pH 7.4 assessed as GSH mono-adduct formation at 10 uM in presence of 1 mM GSH measured after 5 mins by LC-MS analysis; conditions: buffer, pH 7.4, 5 min
# [11] = Prodrug activation in PBS at pH 7.4 assessed as retention time of GSH bis-adduct formation at 10 uM in presence of 1 mM GSH by LC-MS analysis; conditions: buffer, pH 7.4, 10 µM
# [12] = Prodrug activation in human HepG2 cells assessed as GSH bis-adduct formation by measuring green fluorescence at 10 uM incubated upto 30 mins by inverted fluorescence microscopy; format: cell-based; conditions: hepg2, 0.5 h
# [13] = Prodrug activation in PBS at pH 7.4 assessed as rate of CPT release at 10 uM measured within 10 mins by fluorescence microscopy; conditions: buffer, pH 7.4, 10 min
# [14] = Prodrug activation in PBS at pH 7.4 assessed as retention time of CPT at 10 uM in presence of 1 mM GSH by LC-MS analysis; conditions: buffer, pH 7.4, 10 µM
# [15] = Prodrug activation in human HepG2 cells assessed as retention time of GSH bis-adduct formation at 10 uM treated for 1 hr in presence of 1 mM GSH by LC-MS analysis; format: cell-based; conditions: hepg2, 1 h
# BV-2 [16] = experiment: Cytotoxicity against mouse BV-2 cells assessed as cell survival upto 2 uM incubated for 24 hrs by MTT assay; format: toxicity, cell-based; conditions: bv-2, 24 h
# [17] = Prodrug activation in PBS at pH 7.4 assessed as GSH-induced NO release by measuring increase in fluorescence at 10 uM in presence of 1 mM GSH; conditions: buffer, pH 7.4, 10 µM
# [18] = Drug uptake in zebrafish embryo assessed as penetration depth at 20 uM treated for 20 mins by two-photon based fluorescence microscopy; format: ADME, Danio rerio; conditions: in vivo
# BV-2 [19] = experiment: Neuroprotective activity against OGD-induced mouse BV2 cells assessed as morphological change at 1 to 4 uM incubated for 4 hrs by fluorescence microscopy; format: functional, cell-based; conditions: dose 1-4 µM
# [20] = Prodrug activation in PBS at pH 7.4 assessed as GSH-induced NO release by measuring increase in fluorescence at 10 uM incubated for 60 mins in presence of 1 mM GSH by fluorescence based assay; conditions: buffer, pH 7.4, 1 h
# [21] = Prodrug activation in PBS assessed as amount of GSH-activated NO release at 17 uM in presence of 1 mM GSH by Griess assay; conditions: buffer
# [22] = Prodrug activation in PBS at pH 7.4 assessed as change in fluorescence signal at 10 uM incubated for 60 mins in presence of 1 mM cysteine by fluorescence based assay; conditions: buffer, pH 7.4, 1 h
# [23] = Prodrug activation in human HepG2 cells assessed as NO release by measuring red fluorescence at 20 uM treated for 15 mins by dRB-OPD staining based fluorescence microscopy; format: cell-based; conditions: hepg2, 0.25 h
# [24] = Prodrug activation in PBS at pH 7.4 assessed as GSH bis-adduct at 10 uM incubated upto 60 mins in presence of 1 mM GSH by LC-MS analysis; conditions: buffer, pH 7.4, 1 h
# [25] = Drug uptake in mouse brain assessed as penetration depth at 1 mM treated for 2 hrs by two-photon based fluorescence microscopy; format: ADME, tissue-based; conditions: in vivo, 1000 µM
# BV-2 [26] = experiment: Cytotoxicity against mouse BV2 cells assessed as cell survival at less than 4 uM incubated for 24 hrs by MTT assay; format: toxicity, cell-based; conditions: bv-2, 24 h
# [27] = Prodrug activation in PBS assessed as increase in GSH-activated NO release at 10 uM in presence of 1 mM GSH measured for 40 mins by Griess assay; conditions: buffer
# [28] = Prodrug activation in PBS at pH 7.4 assessed as decrease in compound at 10 uM incubated upto 60 mins in presence of 1 mM GSH by LC-MS analysis; conditions: buffer, pH 7.4, 1 h
# [29] = Prodrug activation in zebrafish assessed as green fluorescence signal at 20 uM incubated for 20 mins by fluorescence microscopy; set-up: species or system Danio rerio
# [30] = Prodrug activation in PBS at pH 7.4 assessed as change in fluorescence signal at 10 uM incubated for 60 mins in presence of 1 mM homocysteine by fluorescence based assay; conditions: buffer, pH 7.4, 1 h
# [31] = Prodrug activation in PBS at pH 6.5 to 9.0 at 10 uM incubated for 60 mins in presence of 1 mM GSH by fluorescence based assay; conditions: buffer, pH 6.5, 1 h
# [32] = Prodrug activation in zebrafish assessed as NO release by measuring red fluorescence signal at 20 uM incubated for 20 mins by dRB-OPD staining based fluorescence microscopy; set-up: species or system Danio rerio
# Astrocyte = experiment: Cytotoxicity against astrocyte cells assessed as cell survival upto 2 uM incubated for 24 hrs by MTT assay; format: toxicity, cell-based
# BV-2 [33] = experiment: Neuroprotective activity against OGD-induced mouse BV2 cells assessed as increase in cell viability at 2 to 4 uM incubated for 4 hrs followed by reoxygenation by MTT assay; format: functional, cell-based; conditions: dose 2-4 µM
# [34] = Prodrug activation in human HepG2 cells assessed as bis-thiol adduct by measuring green fluorescence at 20 uM treated for 15 mins by fluorescence microscopy; format: cell-based; conditions: hepg2, 0.25 h
structure (smiles),measurement,setting,value
C=C(COC(=O)O[C@]1(CC)C(=O)OCc2c1cc1n(c2=O)Cc2cc3ccccc3nc2-1)C(=O)c1ccc2cc(N(C)C)ccc2c1,Retention_time,[1],13.5 min
same,Retention_time,[2],28.9 min
same,Stability,[3],> 60%
same,Retention_time,[4],28.9 min
same,Activity,[5],Active
same,Drug metabolism,[6],Metabolite_Detected
same,Activity,[7],Active
same,Retention_time,[8],10.2 min
same,Activity,[9],Active
same,Activity,[10],Active
same,Retention_time,[11],5.1 min
same,Drug metabolism,[12],Metabolite_Detected
same,Activity,[13],> 90%
same,Retention_time,[14],10.2 min
same,Retention_time,[15],5.1 min
C=C(CO/N=[N+](/[O-])N1CCCC1)C(=O)c1ccc2cc(N(C)C)ccc2c1,Activity,BV-2 [16],Non-Toxic
same,Activity,[17],Active
same,Drug metabolism,[18],Metabolite_Detected
same,Stability,[3],> 60%
same,Activity,BV-2 [19],Active
same,Activity,[20],Active
same,Activity,[21],85%
same,Activity,[22],Active
same,Drug metabolism,[23],Metabolite_Detected
same,Activity,[24],Active
same,Drug metabolism,[25],Metabolite_Detected
same,Activity,BV-2 [26],Active
same,Activity,[27],Active
same,Activity,[28],Active
same,Drug metabolism,[29],Metabolite_Detected
same,Activity,[30],Active
same,Activity,[31],Active
same,Drug metabolism,[32],Metabolite_Detected
same,Activity,Astrocyte,Non-Toxic
same,Activity,BV-2 [33],Active
same,Drug metabolism,[34],Metabolite_Detected
